Measured values from paper PMC5063900, “A phase 1 study of the safety, tolerability, pharmacokinetics, and pharmacodynamics of TAK-063, a selective PDE10A inhibitor” (Psychopharmacology, 2016).

Assay: Treatment-emergent adverse events, phase 1 single-rising-dose study in healthy subjects
Format: in vivo, human
Procedure: Healthy Japanese and non-Japanese subjects between 18 and 55 years of age were recruited to participate in the study. Criteria for exclusion included prior treatment with any investigational compound within 30 days of the first TAK-063 dose, a positive test for drugs of abuse or nicotine, and an increased risk for suicide. […] Following a washout period of 7 days, subjects in cohort 3 (100 mg) received the same dose (100 mg) but under fed conditions.
The study assessed safety and tolerability in all subjects for the 4-day study duration. The primary endpoints were the percentage of subjects who experienced at least one treatment-emergent adverse event (TEAE), as well as the percentage of subjects who met predefined criteria for safety laboratory tests, vital sign measurements, and safety parameters following TAK-063 administration. The secondary endpoints were PK parameters for TAK-063 and M-I, assessing drug exposure at each dose, and the effect of food coadministration on TAK-063 PK. Exploratory endpoints included the effects of TAK-063 on domains of cognition as assessed by a computerized battery, CNS Vital Signs (CNSVS).
Adverse events, clinical laboratory tests, vital signs, 12-lead electrocardiograms (ECGs), and Columbia-Suicide Severity Rating Scale (C-SSRS) were all monitored. Intensity of AEs was classified as mild, moderate, or severe, and each AE was classified as to its relation to study drug.
Laboratory tests evaluated hematology, serum chemistry, urine, and hormone levels. Vital signs and ECGs were collected at screening, check-in, within 1 h predose, serially postdose, and at study exit, while the C-SSRS was administered at screening, check-in, and study exit. Any events reported on the C-SSRS and clinically significant laboratory abnormalities were reported as AEs.

[1] = Japanese subjects, TAK-063 Total (n = 30)
[2] = Japanese subjects, single 3 mg dose (n = 5)
[3] = Japanese subjects, single 10 mg dose (n = 5)
[4] = Japanese subjects, single 30 mg dose (n = 5)
[5] = Japanese subjects, single 100 mg dose (n = 5)
[6] = Japanese subjects, single 300 mg dose (n = 5)
[7] = Japanese subjects, single 1000 mg dose (n = 5)
[8] = all TAK-063-treated subjects, all cohorts
[9] = all subjects, TAK-063 Total (n = 66)
[10] = all subjects, single 3 mg dose (n = 11)
[11] = all subjects, single 10 mg dose (n = 11)
[12] = all subjects, single 30 mg dose (n = 11)

COc1cn(-c2ccc(-n3cccn3)cc2F)nc(-c2ccnn2-c2ccccc2)c1=O [TAK-063]
Severe AE: orthostatic hypotension, number of subjects (300 mg): 1 | Severe AE: somnolence, number of subjects (1000 mg): 2 | AEs of mild intensity (55/63 AEs): 87.3% | Total incidence of TEAEs (Japanese subjects treated with TAK-063): 43.3% | Adverse event: Dizziness [1]: 1 (3.3) n (%) | Adverse event: Epistaxis [1]: 1 (3.3) n (%) | Adverse event: Headache [1]: 1 (3.3) n (%) | Adverse event: Muscle tightness [1]: 1 (3.3) n (%) | Adverse event: Nausea [1]: 1 (3.3) n (%) | Adverse event: Orthostatic hypotension [1]: 4 (13.3) n (%) | Adverse event: Orthostatic tachycardia [1]: 5 (16.7) n (%) | Adverse event: Somnolence [1]: 10 (33.3) n (%) | Adverse event: Vomiting [1]: 2 (6.7) n (%) | Adverse event: Dizziness [2]: 0 n (%) | Adverse event: Epistaxis [2]: 0 n (%) | Adverse event: Headache [2]: 0 n (%) | Adverse event: Muscle tightness [2]: 0 n (%) | Adverse event: Nausea [2]: 0 n (%) | Adverse event: Orthostatic hypotension [2]: 0 n (%) | Adverse event: Orthostatic tachycardia [2]: 0 n (%) | Adverse event: Somnolence [2]: 0 n (%) | Adverse event: Vomiting [2]: 0 n (%) | Adverse event: Dizziness [3]: 0 n (%) | Adverse event: Epistaxis [3]: 0 n (%) | Adverse event: Headache [3]: 0 n (%) | Adverse event: Muscle tightness [3]: 0 n (%) | Adverse event: Nausea [3]: 0 n (%) | Adverse event: Orthostatic hypotension [3]: 0 n (%) | Adverse event: Orthostatic tachycardia [3]: 0 n (%) | Adverse event: Somnolence [3]: 0 n (%) | Adverse event: Vomiting [3]: 0 n (%) | Adverse event: Dizziness [4]: 0 n (%) | Adverse event: Epistaxis [4]: 1 (20.0) n (%) | Adverse event: Headache [4]: 0 n (%) | Adverse event: Muscle tightness [4]: 1 (20.0) n (%) | Adverse event: Nausea [4]: 0 n (%) | Adverse event: Orthostatic hypotension [4]: 0 n (%) | Adverse event: Orthostatic tachycardia [4]: 1 (20.0) n (%) | Adverse event: Somnolence [4]: 1 (20.0) n (%) | Adverse event: Vomiting [4]: 0 n (%) | Adverse event: Dizziness [5]: 0 n (%) | Adverse event: Epistaxis [5]: 0 n (%) | Adverse event: Headache [5]: 1 (20.0) n (%) | Adverse event: Muscle tightness [5]: 0 n (%) | Adverse event: Nausea [5]: 0 n (%) | Adverse event: Orthostatic hypotension [5]: 1 (20.0) n (%) | Adverse event: Orthostatic tachycardia [5]: 0 n (%) | Adverse event: Somnolence [5]: 4 (80.0) n (%) | Adverse event: Vomiting [5]: 1(20.0) n (%) | Adverse event: Dizziness [6]: 0 n (%) | Adverse event: Epistaxis [6]: 0 n (%) | Adverse event: Headache [6]: 0 n (%) | Adverse event: Muscle tightness [6]: 0 n (%) | Adverse event: Nausea [6]: 0 n (%) | Adverse event: Orthostatic hypotension [6]: 1 (20.0) n (%) | Adverse event: Orthostatic tachycardia [6]: 1 (20.0) n (%) | Adverse event: Somnolence [6]: 2 (40.0) n (%) | Adverse event: Vomiting [6]: 0 n (%) | Adverse event: Dizziness [7]: 1 (20.0) n (%) | Adverse event: Epistaxis [7]: 0 n (%) | Adverse event: Headache [7]: 0 n (%) | Adverse event: Muscle tightness [7]: 0 n (%) | Adverse event: Nausea [7]: 1 (20.0) n (%) | Adverse event: Orthostatic hypotension [7]: 2 (40.0) n (%) | Adverse event: Orthostatic tachycardia [7]: 3 (60.0) n (%) | Adverse event: Somnolence [7]: 3 (60.0) n (%) | Adverse event: Vomiting [7]: 1 (20.0) n (%) | Subjects experiencing drug-related AEs (across all cohorts): 32 of 66 | Total number of drug-related AEs (across all cohorts): 57 | Drug-related AE: orthostatic hypotension, incidence [8]: 10.6% | Drug-related AE: orthostatic tachycardia, incidence [8]: 19.7% | Drug-related AE: somnolence, incidence [8]: 33.3% | Adverse event: Anxiety [9]: 1 (1.5) n (%) | Adverse event: Blurred vision [9]: 1 (1.5) n (%) | Adverse event: Dizziness [9]: 3 (4.5) n (%) | Adverse event: Dysarthria [9]: 1(1.5) n (%) | Adverse event: Epistaxis [9]: 1 (1.5) n (%) | Adverse event: Headache [9]: 2 (3.0) n (%) | Adverse event: Hypotension [9]: 1 (1.5) n (%) | Adverse event: Muscle tightness [9]: 1 (1.5) n (%) | Adverse event: Nausea [9]: 3 (4.5) n (%) | Adverse event: Orthostatic hypotension [9]: 7 (10.6) n (%) | Adverse event: Orthostatic tachycardia [9]: 13 (19.7) n (%) | Adverse event: Somnolence [9]: 22 (33.3) n (%) | Adverse event: Vomiting [9]: 3 (4.5) n (%) | Adverse event: Anxiety [10]: 0 n (%) | Adverse event: Blurred vision [10]: 0 n (%) | Adverse event: Dizziness [10]: 0 n (%) | Adverse event: Dysarthria [10]: 0 n (%) | Adverse event: Epistaxis [10]: 0 n (%) | Adverse event: Headache [10]: 0 n (%) | Adverse event: Hypotension [10]: 0 n (%) | Adverse event: Muscle tightness [10]: 0 n (%) | Adverse event: Nausea [10]: 0 n (%) | Adverse event: Orthostatic hypotension [10]: 0 n (%) | Adverse event: Orthostatic tachycardia [10]: 2 (18.2) n (%) | Adverse event: Somnolence [10]: 0 n (%) | Adverse event: Vomiting [10]: 0 n (%) | Adverse event: Anxiety [11]: 0 n (%) | Adverse event: Blurred vision [11]: 0 n (%) | Adverse event: Dizziness [11]: 0 n (%) | Adverse event: Dysarthria [11]: 0 n (%) | Adverse event: Epistaxis [11]: 0 n (%) | Adverse event: Headache [11]: 0 n (%) | Adverse event: Hypotension [11]: 0 n (%) | Adverse event: Muscle tightness [11]: 0 n (%) | Adverse event: Nausea [11]: 0 n (%) | Adverse event: Orthostatic hypotension [11]: 0 n (%) | Adverse event: Orthostatic tachycardia [11]: 0 n (%) | Adverse event: Somnolence [11]: 0 n (%) | Adverse event: Vomiting [11]: 0 n (%) | Adverse event: Anxiety [12]: 0 n (%) | Adverse event: Blurred vision [12]: 0 n (%) | Adverse event: Dizziness [12]: 1 (9.1) n (%) | Adverse event: Dysarthria [12]: 0 n (%) | Adverse event: Epistaxis [12]: 1 (9.1) n (%) | Adverse event: Headache [12]: 0 n (%) | Adverse event: Hypotension [12]: 0 n (%) | Adverse event: Muscle tightness [12]: 1 (9.1) n (%) | Adverse event: Nausea [12]: 2 (18.2) n (%) | Adverse event: Orthostatic hypotension [12]: 0 n (%) | Adverse event: Orthostatic tachycardia [12]: 1 (9.1) n (%)
